From ChEMBL document CHEMBL3991601, “The target landscape of clinical kinase drugs” (Science, 2017) come the findings set out here.

A word on the Kd: it is the constant that tells how readily two partners part at equilibrium.

Structures are written as SMILES. The source made the active and inactive calls.

The target in assay [1] is Rho-associated protein kinase 2 (Homo sapiens, UniProt O75116).
Assay [2] has as its target Bone morphogenetic protein receptor type-1A (Homo sapiens, UniProt P36894).
Assay [3] has as its target T1, Ferrochelatase, mitochondrial (Homo sapiens, UniProt P22830).
T1 sequence (P22830 whole entry): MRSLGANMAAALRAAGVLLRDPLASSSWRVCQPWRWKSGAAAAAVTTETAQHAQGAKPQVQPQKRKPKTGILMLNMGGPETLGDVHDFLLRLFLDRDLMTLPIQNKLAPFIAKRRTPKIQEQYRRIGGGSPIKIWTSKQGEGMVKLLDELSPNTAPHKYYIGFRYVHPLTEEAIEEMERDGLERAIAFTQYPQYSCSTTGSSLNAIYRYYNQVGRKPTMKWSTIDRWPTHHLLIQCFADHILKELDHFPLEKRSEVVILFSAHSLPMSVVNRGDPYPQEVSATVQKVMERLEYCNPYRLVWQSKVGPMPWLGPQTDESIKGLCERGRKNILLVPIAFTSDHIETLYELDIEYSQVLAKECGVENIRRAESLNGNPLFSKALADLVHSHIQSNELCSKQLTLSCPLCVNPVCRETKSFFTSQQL

The target of another assay is T2, Rab-like protein 3 (Homo sapiens, UniProt Q5HYI8).
T2 sequence (Q5HYI8 whole entry): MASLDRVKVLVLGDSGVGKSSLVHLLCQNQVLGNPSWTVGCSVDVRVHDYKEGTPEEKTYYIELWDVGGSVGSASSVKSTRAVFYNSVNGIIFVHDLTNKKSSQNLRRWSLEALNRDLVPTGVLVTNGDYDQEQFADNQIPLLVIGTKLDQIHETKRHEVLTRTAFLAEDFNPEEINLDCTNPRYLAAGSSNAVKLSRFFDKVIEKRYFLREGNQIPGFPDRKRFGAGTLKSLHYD

For assay [4], the target named is Insulin-like growth factor 1 receptor (Homo sapiens, UniProt P08069).
The next assay deals with T3, Glycine--tRNA ligase (Homo sapiens, UniProt P41250).
T3 sequence (P41250 whole entry): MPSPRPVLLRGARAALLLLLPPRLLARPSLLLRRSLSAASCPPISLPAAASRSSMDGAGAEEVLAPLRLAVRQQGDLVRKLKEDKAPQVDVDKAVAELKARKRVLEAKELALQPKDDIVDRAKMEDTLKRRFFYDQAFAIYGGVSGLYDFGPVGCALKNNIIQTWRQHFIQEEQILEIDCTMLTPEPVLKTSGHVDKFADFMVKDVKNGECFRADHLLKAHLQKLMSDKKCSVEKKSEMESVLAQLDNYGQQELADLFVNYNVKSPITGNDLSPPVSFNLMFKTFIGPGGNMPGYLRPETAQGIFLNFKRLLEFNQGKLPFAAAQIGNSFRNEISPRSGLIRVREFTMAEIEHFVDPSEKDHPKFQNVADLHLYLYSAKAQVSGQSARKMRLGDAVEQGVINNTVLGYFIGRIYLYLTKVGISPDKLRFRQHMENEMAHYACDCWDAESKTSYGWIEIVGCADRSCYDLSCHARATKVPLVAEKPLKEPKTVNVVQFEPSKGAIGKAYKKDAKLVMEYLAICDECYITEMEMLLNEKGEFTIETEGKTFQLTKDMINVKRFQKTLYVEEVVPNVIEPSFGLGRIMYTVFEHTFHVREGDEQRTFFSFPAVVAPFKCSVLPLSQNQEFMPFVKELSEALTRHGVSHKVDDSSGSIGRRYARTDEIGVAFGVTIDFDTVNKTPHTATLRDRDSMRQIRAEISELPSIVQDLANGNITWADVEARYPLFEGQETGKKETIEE

For assay [5], the target named is Serine/threonine-protein kinase SIK3 (Homo sapiens, UniProt Q9Y2K2).
The target of another assay is LIM domain kinase 2 (Homo sapiens, UniProt P53671).
Assay [6] deals with T4, Exosome RNA helicase MTR4 (Homo sapiens, UniProt P42285).
T4 sequence (P42285 whole entry): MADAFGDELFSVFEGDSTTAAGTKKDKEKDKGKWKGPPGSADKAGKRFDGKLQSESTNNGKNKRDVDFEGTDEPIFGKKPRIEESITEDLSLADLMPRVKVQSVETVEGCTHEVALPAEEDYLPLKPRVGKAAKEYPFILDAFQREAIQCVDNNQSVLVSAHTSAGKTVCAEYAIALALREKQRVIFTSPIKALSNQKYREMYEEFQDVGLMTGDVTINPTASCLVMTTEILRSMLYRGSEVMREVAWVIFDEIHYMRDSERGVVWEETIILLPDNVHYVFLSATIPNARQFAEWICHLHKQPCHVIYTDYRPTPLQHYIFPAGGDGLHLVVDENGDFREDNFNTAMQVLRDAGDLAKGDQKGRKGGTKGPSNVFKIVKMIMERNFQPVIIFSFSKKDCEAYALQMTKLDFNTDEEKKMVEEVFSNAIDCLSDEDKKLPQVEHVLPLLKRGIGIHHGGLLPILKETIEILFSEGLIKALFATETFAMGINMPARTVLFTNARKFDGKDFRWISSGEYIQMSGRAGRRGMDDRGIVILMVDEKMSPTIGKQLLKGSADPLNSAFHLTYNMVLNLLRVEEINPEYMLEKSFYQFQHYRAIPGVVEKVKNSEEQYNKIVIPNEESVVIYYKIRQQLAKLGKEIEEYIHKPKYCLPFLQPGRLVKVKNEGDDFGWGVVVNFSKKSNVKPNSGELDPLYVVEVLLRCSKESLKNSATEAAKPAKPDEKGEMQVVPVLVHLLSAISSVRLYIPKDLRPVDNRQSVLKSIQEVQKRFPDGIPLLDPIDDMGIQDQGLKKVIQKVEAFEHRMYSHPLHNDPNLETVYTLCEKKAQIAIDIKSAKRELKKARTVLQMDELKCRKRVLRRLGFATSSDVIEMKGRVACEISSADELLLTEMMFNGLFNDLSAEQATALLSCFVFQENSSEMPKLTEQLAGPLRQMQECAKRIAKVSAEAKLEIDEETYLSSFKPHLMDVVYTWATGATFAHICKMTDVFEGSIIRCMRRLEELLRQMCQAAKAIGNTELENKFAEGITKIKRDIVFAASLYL

For assay [7], the target named is Mitogen-activated protein kinase kinase kinase 1 (Homo sapiens, UniProt Q13233).
Further: in the data inactive means no Kd found up to 30 µM.

Sequence of Serine/threonine-protein kinase SIK3 (Q9Y2K2 whole entry, the tested form may be a part): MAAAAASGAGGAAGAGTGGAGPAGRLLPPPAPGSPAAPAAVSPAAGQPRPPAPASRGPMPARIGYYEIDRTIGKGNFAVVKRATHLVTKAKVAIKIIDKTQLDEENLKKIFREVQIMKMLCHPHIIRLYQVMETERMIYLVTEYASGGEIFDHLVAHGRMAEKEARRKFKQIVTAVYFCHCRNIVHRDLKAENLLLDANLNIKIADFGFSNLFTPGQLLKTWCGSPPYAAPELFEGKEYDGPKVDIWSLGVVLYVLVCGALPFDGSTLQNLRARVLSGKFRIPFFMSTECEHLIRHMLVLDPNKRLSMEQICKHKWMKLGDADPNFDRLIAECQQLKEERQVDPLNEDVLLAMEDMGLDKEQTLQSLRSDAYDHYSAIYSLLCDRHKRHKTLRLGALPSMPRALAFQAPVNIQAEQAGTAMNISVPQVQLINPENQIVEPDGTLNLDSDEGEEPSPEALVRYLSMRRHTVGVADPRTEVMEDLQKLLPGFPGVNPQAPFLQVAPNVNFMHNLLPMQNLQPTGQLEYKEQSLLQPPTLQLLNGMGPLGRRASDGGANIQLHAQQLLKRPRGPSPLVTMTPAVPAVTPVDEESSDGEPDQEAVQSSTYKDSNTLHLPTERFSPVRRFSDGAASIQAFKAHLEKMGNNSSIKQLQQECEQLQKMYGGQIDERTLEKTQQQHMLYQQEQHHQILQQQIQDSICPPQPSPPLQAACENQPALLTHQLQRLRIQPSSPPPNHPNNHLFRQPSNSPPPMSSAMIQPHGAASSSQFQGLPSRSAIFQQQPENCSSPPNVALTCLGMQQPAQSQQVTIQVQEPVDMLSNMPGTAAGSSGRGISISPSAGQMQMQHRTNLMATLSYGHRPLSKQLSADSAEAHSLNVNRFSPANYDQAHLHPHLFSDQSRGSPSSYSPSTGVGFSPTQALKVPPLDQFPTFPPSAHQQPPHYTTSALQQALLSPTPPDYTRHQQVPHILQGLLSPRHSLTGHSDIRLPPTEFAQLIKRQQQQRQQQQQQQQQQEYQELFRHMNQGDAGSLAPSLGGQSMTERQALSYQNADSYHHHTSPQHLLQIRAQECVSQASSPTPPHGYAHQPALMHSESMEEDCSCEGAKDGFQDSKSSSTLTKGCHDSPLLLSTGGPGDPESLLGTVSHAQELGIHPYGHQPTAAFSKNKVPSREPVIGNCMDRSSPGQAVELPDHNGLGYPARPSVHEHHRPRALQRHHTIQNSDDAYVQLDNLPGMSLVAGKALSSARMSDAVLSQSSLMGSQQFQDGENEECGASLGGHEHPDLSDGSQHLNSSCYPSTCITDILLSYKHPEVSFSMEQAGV
Sequence of Bone morphogenetic protein receptor type-1A (P36894 whole entry): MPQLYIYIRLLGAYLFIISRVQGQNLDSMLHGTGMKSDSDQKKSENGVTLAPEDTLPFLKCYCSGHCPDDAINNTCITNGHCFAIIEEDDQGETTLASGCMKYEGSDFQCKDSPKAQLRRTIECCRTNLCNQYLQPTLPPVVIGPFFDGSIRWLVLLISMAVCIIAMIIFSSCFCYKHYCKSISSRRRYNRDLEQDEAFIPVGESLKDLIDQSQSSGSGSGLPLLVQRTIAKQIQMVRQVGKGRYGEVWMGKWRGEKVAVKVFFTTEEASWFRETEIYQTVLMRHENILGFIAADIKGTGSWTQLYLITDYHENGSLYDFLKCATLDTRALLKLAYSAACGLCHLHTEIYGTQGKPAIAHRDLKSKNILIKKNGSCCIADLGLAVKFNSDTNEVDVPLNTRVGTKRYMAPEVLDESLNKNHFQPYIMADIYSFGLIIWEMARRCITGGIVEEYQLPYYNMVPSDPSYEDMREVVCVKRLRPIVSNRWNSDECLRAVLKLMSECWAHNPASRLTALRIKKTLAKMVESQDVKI
Sequence of Mitogen-activated protein kinase kinase kinase 1 (Q13233 whole entry): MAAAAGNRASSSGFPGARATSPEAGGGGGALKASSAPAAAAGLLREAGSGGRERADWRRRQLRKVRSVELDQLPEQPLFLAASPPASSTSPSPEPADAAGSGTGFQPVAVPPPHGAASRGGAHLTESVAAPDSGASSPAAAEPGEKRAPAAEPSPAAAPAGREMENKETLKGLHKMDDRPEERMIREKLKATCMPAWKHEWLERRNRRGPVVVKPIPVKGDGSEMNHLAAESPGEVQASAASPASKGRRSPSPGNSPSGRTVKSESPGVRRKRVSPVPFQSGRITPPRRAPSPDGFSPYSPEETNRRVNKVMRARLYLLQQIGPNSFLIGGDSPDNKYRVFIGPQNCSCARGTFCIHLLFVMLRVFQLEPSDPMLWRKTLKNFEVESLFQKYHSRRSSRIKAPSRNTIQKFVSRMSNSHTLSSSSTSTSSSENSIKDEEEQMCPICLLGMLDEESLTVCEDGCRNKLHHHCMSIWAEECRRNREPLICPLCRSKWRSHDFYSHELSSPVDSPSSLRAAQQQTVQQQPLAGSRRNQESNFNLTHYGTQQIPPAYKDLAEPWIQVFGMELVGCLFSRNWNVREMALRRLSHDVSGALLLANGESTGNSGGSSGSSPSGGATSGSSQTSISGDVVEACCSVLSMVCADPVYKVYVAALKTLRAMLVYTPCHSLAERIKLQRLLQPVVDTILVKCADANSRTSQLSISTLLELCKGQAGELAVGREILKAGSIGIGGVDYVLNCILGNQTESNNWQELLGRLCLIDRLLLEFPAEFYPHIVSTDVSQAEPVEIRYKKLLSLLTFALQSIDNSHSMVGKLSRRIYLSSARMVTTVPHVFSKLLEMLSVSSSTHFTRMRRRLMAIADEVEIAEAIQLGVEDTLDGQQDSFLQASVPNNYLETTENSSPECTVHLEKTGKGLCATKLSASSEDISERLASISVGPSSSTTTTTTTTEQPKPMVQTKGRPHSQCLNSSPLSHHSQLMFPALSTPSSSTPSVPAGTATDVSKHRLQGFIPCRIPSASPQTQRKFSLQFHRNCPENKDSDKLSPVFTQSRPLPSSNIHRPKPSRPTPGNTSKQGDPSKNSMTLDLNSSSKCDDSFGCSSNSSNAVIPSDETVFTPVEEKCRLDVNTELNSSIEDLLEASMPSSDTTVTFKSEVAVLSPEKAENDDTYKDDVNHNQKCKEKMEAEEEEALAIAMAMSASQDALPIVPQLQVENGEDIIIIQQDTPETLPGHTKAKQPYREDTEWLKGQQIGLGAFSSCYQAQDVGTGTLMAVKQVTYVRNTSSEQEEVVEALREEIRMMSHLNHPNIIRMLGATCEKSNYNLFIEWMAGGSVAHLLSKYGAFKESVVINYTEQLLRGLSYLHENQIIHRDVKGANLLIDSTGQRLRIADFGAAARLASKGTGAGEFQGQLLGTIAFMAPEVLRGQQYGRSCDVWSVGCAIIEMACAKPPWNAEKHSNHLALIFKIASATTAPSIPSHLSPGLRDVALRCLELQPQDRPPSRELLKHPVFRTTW
Sequence of LIM domain kinase 2 (P53671 whole entry, the tested form may be a part): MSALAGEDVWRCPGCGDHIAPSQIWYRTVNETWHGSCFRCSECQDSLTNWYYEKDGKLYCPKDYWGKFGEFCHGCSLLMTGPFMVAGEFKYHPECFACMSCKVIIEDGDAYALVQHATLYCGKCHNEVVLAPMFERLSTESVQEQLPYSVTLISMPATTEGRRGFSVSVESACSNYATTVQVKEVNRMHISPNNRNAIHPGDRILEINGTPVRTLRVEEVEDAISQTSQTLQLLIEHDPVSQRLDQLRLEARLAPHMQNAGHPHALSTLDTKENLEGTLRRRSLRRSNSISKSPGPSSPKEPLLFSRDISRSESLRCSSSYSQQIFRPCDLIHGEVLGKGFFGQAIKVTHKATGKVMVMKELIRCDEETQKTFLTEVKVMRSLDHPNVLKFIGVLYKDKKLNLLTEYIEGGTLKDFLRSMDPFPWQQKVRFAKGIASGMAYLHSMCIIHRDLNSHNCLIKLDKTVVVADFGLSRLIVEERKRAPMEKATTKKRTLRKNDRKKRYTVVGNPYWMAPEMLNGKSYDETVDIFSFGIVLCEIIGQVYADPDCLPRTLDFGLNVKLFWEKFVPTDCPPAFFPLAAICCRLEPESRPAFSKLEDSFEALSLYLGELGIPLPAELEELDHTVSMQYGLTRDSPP

Regarding `COc1cc(Nc2ncc(F)c(Nc3ccc4c(n3)N(COP(=O)(O)O)C(=O)C(C)(C)O4)n2)cc(OC)c1OC` [FOSTAMATINIB], the Kd (in assay [1]; in [2]; in [3]; at Rab-like protein 3; in assay [4]; on Glycine--tRNA ligase) was > 30 µM (inactive) in each case. Further, the Kd (in [5]; on LIM domain kinase 2; in assay [6]; in assay [7]) was > 30 µM (inactive) throughout.
`N#CCNC(=O)c1ccc(-c2ccnc(Nc3ccc(N4CCOCC4)cc3)n2)cc1` [MOMELOTINIB]: the Kd in assay [1] was 0.219 µM (active); in assay [2], > 30 µM (inactive); in [3], > 30 µM (inactive); at Rab-like protein 3, > 30 µM (inactive); in assay [4] it was > 30 µM (inactive); on Glycine--tRNA ligase, > 30 µM (inactive). Moreover, the Kd in assay [5] was 0.859 µM (active); on LIM domain kinase 2, > 30 µM (inactive); in [6], > 30 µM (inactive); in assay [7], > 30 µM (inactive).
Take `O=C(O)c1ccc2c(c1)nc(Nc1cccc(Cl)c1)c1ccncc12` [SILMITASERTIB]: the Kd (in assay [1]; in assay [2]; in assay [3]; at Rab-like protein 3; in assay [4]; at Glycine--tRNA ligase) was > 30 µM (inactive) in each case. The Kd (in assay [5]; at LIM domain kinase 2; in [6]; in [7]) was > 30 µM (inactive) in each case.
In the case of `O[C@H]1CC[C@H](Nc2ncc3nc(Nc4c(F)cc(F)cc4F)n([C@H]4CCOC4)c3n2)CC1` [TANZISERTIB], the Kd (in [1]; in assay [2]; in assay [3]; on Rab-like protein 3; in assay [4]; at Glycine--tRNA ligase) was > 30 µM (inactive) throughout. The Kd in assay [5] was 2.98 µM (active); on LIM domain kinase 2, 1.84 µM (active); in assay [6] it was > 30 µM (inactive); in assay [7], > 30 µM (inactive).
